Earlier results in patent US11660346B2, “Engineered microparticles for macromolecule delivery” (University of Pittsburgh-Of the Commonwealth System of …, priority 2009, dated 2023).

Settings: parameter for polyanhydride disk prediction, FIG. 10

CCCCN1CCCCC1C(=O)Nc1c(C)cccc1C (centres unmarked) [bupivacaine]
CAmx (maximum solubility of agent) (aqueous): 2.184 mol/m^3
kdis (intrinsic dissolution rate constant): 0.046 mol/m^3 s
